Measurements from a melting point compilation (Tetko et al.; mined from patent text by program, amines drawn as free bases though some values may be those of a salt).

First: CCOC(=O)Nc1cnn(C)c1S(=O)(=O)NC(=S)NC(C)C
Second: CS(=O)(=O)c1cnc(NC(=O)c2cccc(O)c2)s1
The melting point of the first is lower: 141 to 144 °C for the first, 271 to 272 °C for the second.

Compared with `Nc1nc2c(ncn2CCC(CO)CCl)c(=O)[nH]1` (stereo unspecified), `CC(C)Cn1cc(F)c(=O)[nH]c1=O` is lower in melting point: 273 to 275 °C for the first, 173 to 174 °C for the second.

Going from `COC(=O)CCCc1cc2nc(Cl)ccc2n1S(=O)(=O)c1ccc2snnc2c1` to `CC(C)c1cccc(S(=O)(=O)n2c(Cc3ccc(C(=O)O)cc3)cc3cc(Cl)ccc32)c1`, the melting point falls from 219 °C to 181 °C.

`COc1cc2c(O)nc(-c3ccc(Cl)cc3)nc2c(OC)c1OC` and `COc1cc2c(cc1OC)-c1[nH]c3ccc(O)cc3c1C2=O` cannot be ordered by melting point: 289 °C for the first, greater than 260 °C for the second.

First: O=c1[nH]c2cc(Cl)cc(Cl)c2c(=O)n1Cc1ccc(F)cc1
Second: Fc1ccc2c(CN3CC=C(CCc4ccccc4)CC3)c[nH]c2c1
The melting point of the first is higher: 301 to 304 °C for the first, 150 to 152 °C for the second.

First: CC=CC(C)=C1C(=O)OC(=O)C1c1cc(C)n(-c2ccccc2)c1C (stereo unspecified)
Second: CCc1cccc(-c2cn(C)cc(-c3ccccc3)c2=O)c1
The melting point of the first is higher: 172 °C for the first, 135 to 137 °C for the second.

First: O=C1OC(=O)c2cc(N3C(=O)CCCC3=O)ccc21
Second: COc1ccc(Br)c(C(=O)N2CCN(S(=O)(=O)c3ccccc3F)CC2)c1
The melting point of the first is higher: 220 to 222 °C for the first, 167 °C for the second.

First: Fc1ccc2c(c1)nc(CC(F)(F)F)n2C1CCNCC1
Second: CC(C)(C)C(=O)CNC(=O)c1nn(-c2ccc(F)cc2F)c2c1C1CCC2C1 (stereo unspecified)
The melting point of the first is higher: 135 °C for the first, 42 to 43 °C for the second.

Compared with `CC(=O)SCC(Cc1ccccc1)C(=O)NCc1ccc(C(=O)OCc2ccccc2)cc1` (stereo unspecified), `CC(C)(C)OC(=O)c1cc(I)ccc1OCc1ccc2ccccc2c1` is lower in melting point: 142 to 143 °C for the first, 90 °C for the second.

First: Cc1ccnn1-c1ccc(Cl)c(Cl)c1
Second: CC1(C)CN2C(=O)c3ncccc3C(O)(c3ccc(Cl)cc3)C2=N1 (stereo unspecified)
The melting point of the first is lower: 46 to 47 °C for the first, 257 to 260 °C for the second.

First: Cc1cccnc1-c1cncc(OC2SCC(O)C(O)C2O)c1 (stereo unspecified)
Second: FC(F)(F)c1cc(-c2ccc(Cl)cc2)nc2c(-c3cccnc3)ncn12
The melting point of the first is lower: 162 to 175 °C for the first, 206 °C for the second.

First: COC(CCC(N)=C(SC)S(C)=O)OC (stereo unspecified)
Second: COc1ccc(C=O)c(OC)c1Br
The melting point of the first is higher: 86 to 87 °C for the first, 80 °C for the second.

Compared with `CC(C)(C)c1cc(C(=O)Nc2ccccc2C(=O)O)cc(C(C)(C)C)c1O`, `COc1ccc(S(=O)(=O)c2c(C(C)C)n(C)c3ccccc23)cc1` is lower in melting point: 202 to 203 °C for the first, 125 °C for the second.

First: FC(F)(F)Oc1ccc(Cn2cnc3c(Cl)ncnc32)cc1
Second: CCN1c2ncc(CCc3ccncc3)cc2C(=O)Nc2c(C)ccnc21
The melting point of the first is lower: 115 to 116 °C for the first, 176 to 178 °C for the second.

First: Cc1ccc(-c2ccc3c(c2)C=C(C(=O)O)CC3)cc1
Second: Cc1ccc(S(=O)(=O)N(C)c2ccc(Cl)cc2N)cc1
The melting point of the first is higher: 230 to 231 °C for the first, 102 °C for the second.

Compared with `COc1ccc(-c2cc3ccc(C#N)cc3o2)cc1`, `COc1ccc(N2C(=O)[C@H](O)[C@@H]2CC2CCCCC2)cc1` is higher in melting point: 141 to 142 °C for the first, 152 to 155 °C for the second.

First: CCCNC(=O)CCCc1ccc2c(c1)c(Cc1ccc(C(=O)OC)cc1OC)cn2CCC
Second: O=C(O)CN1C(=O)C(=Cc2ccc(OCc3ccc(F)cc3F)c(OCc3ccc(F)cc3F)c2)SC1=S
The melting point of the first is lower: 100 °C for the first, 251 to 254 °C for the second.

First: Nc1ccc(S(=O)(=O)N2CCN(c3ccccn3)CC2)cc1
Second: COC(=O)CNc1ccc(OC(=O)CC2CCN(c3ccncc3)CC2)cc1
The melting point of the first is higher: 208 to 210 °C for the first, 120 to 122 °C for the second.

First: Cc1cc(S(=O)(=O)NC(=O)c2cn3cc(C(F)(F)F)cc(Cl)c3n2)c(C)cc1C#N
Second: Nc1cc(Oc2cc(Oc3cc(N)cc(C(F)(F)F)c3)cc(C(F)(F)F)c2)cc(C(F)(F)F)c1
The melting point of the first is higher: 228 to 229 °C for the first, 82 to 84 °C for the second.

First: OCC1Cc2cc(Cl)cc(C3CCCCC3)c2O1 (stereo unspecified)
Second: COc1cc(I)c(O)c(C=O)c1
The melting point of the first is lower: 67 to 69 °C for the first, 103 to 105 °C for the second.

Molecule `CCCOc1ccnc2[nH]cc(C(C)=O)c12` has a melting point greater than 210 °C.
